Data as given in ChEMBL document CHEMBL1140668, “Antifungal activity in triterpene glycosides from the sea cucumber Actinopyga lecanora” (2007).
In brackets after ≈: the same amount, converted by molar mass.

Experiments:
Candida albicans [1] = experiment: Antifungal activity against Candida albicans; assay type: functional
Cryptococcus neoformans [2] = experiment: Antifungal activity against Cryptococcus neoformans; assay type: functional
Sporothrix schenckii = experiment: Antifungal activity against Sporothrix schenckii; assay type: functional
Trichophyton benhamiae = experiment: Antifungal activity against Trichophyton mentagrophytes; assay type: functional, Arthroderma benhamiae
Aspergillus fumigatus = experiment: Antifungal activity against Aspergillus fumigatus; assay type: functional
Candida parapsilosis = experiment: Antifungal activity against Candida parapsilosis ATCC 22019; assay type: functional; details: Lodderomyces parapsilosis
Aspergillus terreus = experiment: Antifungal activity against Aspergillus terreus IMI 235704; assay type: functional
Talaromyces funiculosus = experiment: Antifungal activity against Penicillium funiculosum MTCC 287; assay type: functional
Penicillium ochrochloron = experiment: Antifungal activity against Penicillium ochrochloron MTCC 517; assay type: functional
Trichophyton rubrum = experiment: Antifungal activity against Trichophyton rubrum MTCC 296; assay type: functional
Candida albicans [3] = experiment: Antifungal activity against Candida albicans ATCC 14053; assay type: functional
Candida albicans [4] = experiment: Antifungal activity against Candida albicans ATCC 60193; assay type: functional
Candida albicans [5] = experiment: Antifungal activity against Candida albicans ATCC 66027; assay type: functional
Cryptococcus neoformans [6] = experiment: Antifungal activity against Cryptococcus neoformans ATCC 6603; assay type: functional
Candida albicans [7] = experiment: Antifungal activity against Candida albicans ATCC 10231; assay type: functional
Pichia kudriavzevii = experiment: Antifungal activity against Candida krusei ATCC 6258; assay type: functional
Candida albicans [8] = experiment: Antifungal activity against Candida albicans MTCC 183; assay type: functional
Candida albicans [9] = experiment: Antifungal activity against Candida albicans MTCC 227; assay type: functional
Cryptococcus neoformans [10] = experiment: Antifungal activity against Filobasidiella neoformans MTCC 1346; assay type: functional
Aspergillus flavus = experiment: Antifungal activity against Aspergillus flavus; assay type: functional

Compound	MIC (Candida albicans [1]) [µg/mL]	MIC (Cryptococcus neoformans [2]) [µg/mL]	MIC (Sporothrix schenckii) [µg/mL]	MIC (Trichophyton benhamiae) [µg/mL]	MIC (Aspergillus fumigatus) [µg/mL]	MIC (Candida parapsilosis) [µg/mL]	MIC (Aspergillus terreus) [µg/mL]	MIC (Talaromyces funiculosus) [µg/mL]	MIC (Penicillium ochrochloron) [µg/mL]	MIC (Trichophyton rubrum) [µg/mL]	MIC (Candida albicans [3]) [µg/mL]	MIC (Candida albicans [4]) [µg/mL]	MIC (Candida albicans [5]) [µg/mL]	MIC (Cryptococcus neoformans [6]) [µg/mL]	MIC (Candida albicans [7]) [µg/mL]	MIC (Pichia kudriavzevii) [µg/mL]	MIC (Candida albicans [8]) [µg/mL]	MIC (Candida albicans [9]) [µg/mL]	MIC (Cryptococcus neoformans [10]) [µg/mL]	MIC (Aspergillus flavus) [µg/mL]
CC(=O)O[C@H]1C[C@@]2(C)C3=CCC4C(C)(C)[C@@H](O[C@@H]5OC[C@@H](O)[C@H](O)[C@H]5O)CC[C@]4(C)C3CCC23C(=O)O[C@@](C)(CCCC(C)C)[C@@H]13 (some centres not stated)	50 (≈ 77.3 µM)	25 (≈ 38.6 µM)	25 (≈ 38.6 µM)	25 (≈ 38.6 µM)	50 (≈ 77.3 µM)	50 (≈ 77.3 µM)	–	–	–	–	–	–	–	–	–	–	–	–	–	–
OC(Cn1cncn1)(Cn1cncn1)c1ccc(F)cc1F [FLUCONAZOLE]	0.5 (≈ 1.63 µM)	1 (≈ 3.27 µM)	1 (≈ 3.27 µM)	2 (≈ 6.53 µM)	2 (≈ 6.53 µM)	1 (≈ 3.27 µM)	–	–	–	–	–	–	–	–	–	–	–	–	–	–
CO[C@@H]1[C@@H](O)[C@H](O[C@@H]2[C@@H](O)[C@H](O[C@H]3[C@H](O)[C@@H](O)[C@H](O[C@H]4[C@H](O[C@H]5CC[C@]6(C)C7=C[C@H](O)[C@@]89C(=O)O[C@@](C)(C%10CCC(C)(C)O%10)[C@@]8(O)CC[C@@]9(C)[C@@H]7CC[C@H]6C5(C)C)OC[C@@H](OS(=O)(=O)[O-])[C@@H]4O)O[C@@H]3C)O[C@H](CO)[C@H]2O)O[C@H](CO)[C@H]1O.[Na+] (some centres not stated) [HOLOTHURIN A]	50	25	25	25	50	–	–	–	–	–	–	–	–	–	–	–	–	–	–	–
C[C@H]1O[C@@H](O[C@H]2[C@H](O[C@H]3CC[C@]4(C)C5=C[C@H](O)C67C(=O)O[C@@](C)(C8CCC(C)(C)O8)[C@@]6(O)CC[C@@]7(C)[C@@H]5CCC4C3(C)C)OC[C@@H](OS(=O)(=O)[O-])[C@@H]2O)[C@H](O)[C@@H](O)[C@@H]1O.[Na+] (some centres not stated) [HOLOTHURIN B]	3.12	3.12	1.56	1.56	3.12	6.25	25	12.5	12.5	3.12	12.5	12.5	25	3.12	25	12.5	25	12.5	6.25	12.5
